Experimental findings from patent US6890523B2 (priority 1999, dated 2005) are described below.

The assay relates to C. difficile. The note with it: hamster; relapse/recurrence of CDAD.

Description: Compounds were evaluated for their ability to inhibit the activity of C. difficile toxins the hamster model of C. difficile colitis. Male hamsters (80-100 g) were purchased Biobreeders Inc. (Falmouth, Mass.). All animals were maintained in groups of five in microisolator cages on autoclaved bedding (Beta Chips) and given free access to autoclaved chow and autoclaved, filtered water. Animals were rested approximately 1 week following arrival and prior to initiation of a study. A C. difficile strain initially isolated from a human C. difficile colitis was used to infect the animals. This strain (HUC2-4) produces moderate to high levels of toxins in vitro and in vivo. A suspension of 10^6-10^7 bacterial cells/ml was prepared from an overnight broth culture and 0.1 ml was administered by oral gavage on day −1. Twenty-four hours later, each animal was injected subcutaneously with Cleocin Phosphate IV® at a dose of 10 mg/kg. Polymers were administered to groups of ten animals by gavage three times daily (t.i.d). The dose of polymers was 25-100 mg/day, administered in three divided doses of 0.75 ml each. Initiation and duration of dosing varied according to the treatment regimens as described below. Animals were observed daily for morbidity or mortality. Additional parameters assessed were general appearance, time to onset of clinical signs, and presence or absence of diarrhea (“wet tail”). […]

In the case of `Cc1ncc([N+](=O)[O-])n1CCO` [metronidazole], the “time to death after discontinuing metronidazole” value is 3 to 6 days.
